According to patent publication US20080058213A1, “Benzoxazole Compounds” (priority 2004, published 2008):

Tests used:
Assay type in all cases: in vivo
[1] = test system: barnyard grass (Echinochloa crusgalli); assay: Weed control test for paddy field (Test Example 1): barnyard grass; conditions: paddy pots, treated at 1.0 leaf stage of barnyard grass, examined after 3 weeks
Text: (§1) Paddy field soil was filled in 1/10,000 are pots, kneaded with adequate amounts of water and chemical fertilizer, seeded with barnyard grass (Echinochloa crusgalli), Monochoria (Monochoria vaginalis), Japanese bulrush (Scirpus juncoides) and flat sedge (Cyperus serotinus), and further transplanted with 2.0 leaf stage of rice plant. The pots were maintained under the water-filled condition to a depth of 3 cm.
(§2) Wettable powders containing the compounds (1) as identified in Table 1, which were formulated following Production Example 2, were diluted with adequate amount of water and applied to the pots dropwise with pippet at a prescribed dose of the active ingredients per are, at 1.0 leaf stage of the barnyard grass.
(§3) After placing the pots in a glasshouse which was controlled at an average temperature of 25° C. for 3 weeks, herbicidal effect was examined.
(§4) Evaluation of the herbicidal effect is shown in the following six grades, by comparing the condition of untreated control and growth inhibition (%): • 0: 0%-less than 20% • 1: 20%-less than 40% • 2: 40%-less than 60% • 3: 60%-less than 80% • 4: 80%-less than 100% • 5: 100%.

[2] = test system: Monochoria (Monochoria vaginalis); assay: Weed control test for paddy field (Test Example 1): Monochoria; conditions: paddy pots, treated at 1.0 leaf stage of barnyard grass, examined after 3 weeks
Text: as §1, §2, §3, §4

[3] = test system: Japanese bulrush (Scirpus juncoides); assay: Weed control test for paddy field (Test Example 1): Japanese bulrush; conditions: paddy pots, treated at 1.0 leaf stage of barnyard grass, examined after 3 weeks
Text: as §1, §2, §3, §4

[4] = test system: flat sedge (Cyperus serotinus); assay: Weed control test for paddy field (Test Example 1): flat sedge; conditions: paddy pots, treated at 1.0 leaf stage of barnyard grass, examined after 3 weeks
Text: as §1, §2, §3, §4

rice plant = assay: Weed control test for paddy field (Test Example 1): phytotoxicity to rice plant; conditions: paddy pots, treated at 1.0 leaf stage of barnyard grass, examined after 3 weeks
Text: as §1, §2, §3
Evaluation of phytotoxicity is shown in the following six grades, as compared with the condition of untreated control: • 0: normal growth • 1: little damaged • 2: low damaged • 3: medium damaged • 4: serious damaged • 5: complete killed.

[5] = test system: southern crabgrass (Digitaria ciliaris); assay: Soil treatment test for upland field (Test Example 2): southern crabgrass; conditions: soil treatment before germination, examined after 3 weeks
Method in brief: (§5)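 Seeds were sown in upland field soil and covered. Next, diluted wettable-powder formulations were sprayed evenly over the surface before germination, using 15 liters of water per are. Pots then stood in a glasshouse averaging 25° C for 3 weeks before grading inhibition 0–5 relative to controls.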

[6] = test system: common lambsquaters (Chenopodium album); assay: Soil treatment test for upland field (Test Example 2): common lambsquaters; conditions: soil treatment before germination, examined after 3 weeks
Method in brief: as §5

[7] = test system: slender amaranth (Amaranthus viridis); assay: Soil treatment test for upland field (Test Example 2): slender amaranth; conditions: soil treatment before germination, examined after 3 weeks
Method in brief: as §5

[8] = test system: common purslane (Portulaca oleracea); assay: Soil treatment test for upland field (Test Example 2): common purslane; conditions: soil treatment before germination, examined after 3 weeks
Method in brief: as §5

[9] = test system: velvetleaf (Abutilon theophrasti); assay: Soil treatment test for upland field (Test Example 2): velvetleaf; conditions: soil treatment before germination, examined after 3 weeks
Method in brief: as §5

wheat [10] = assay: Soil treatment test for upland field (Test Example 2): phytotoxicity to wheat; conditions: soil treatment before germination, examined after 3 weeks
corn [11] = assay: Soil treatment test for upland field (Test Example 2): phytotoxicity to corn; conditions: soil treatment before germination, examined after 3 weeks
soybean [12] = assay: Soil treatment test for upland field (Test Example 2): phytotoxicity to soybean; conditions: soil treatment before germination, examined after 3 weeks
southern crabgrass = assay: Foliage treatment test for upland field (Test Example 3): southern crabgrass; conditions: foliage treatment at 1.0-2.0 leaf stage of southern crabgrass, examined after 3 weeks
Method in brief: (§6)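 Scored after 3 weeks at 25° C on a six-grade scale from 0 (under 20% inhibition) to 5 (100%) relative to untreated plants. Foliar spray of diluted wettable powder at 15 L/are, applied when southern crabgrass reached the 1.0-2.0 leaf stage.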

common lambsquaters = assay: Foliage treatment test for upland field (Test Example 3): common lambsquaters; conditions: foliage treatment at 1.0-2.0 leaf stage of southern crabgrass, examined after 3 weeks
Method in brief: as §6

slender amaranth = assay: Foliage treatment test for upland field (Test Example 3): slender amaranth; conditions: foliage treatment at 1.0-2.0 leaf stage of southern crabgrass, examined after 3 weeks
Method in brief: as §6

common purslane = assay: Foliage treatment test for upland field (Test Example 3): common purslane; conditions: foliage treatment at 1.0-2.0 leaf stage of southern crabgrass, examined after 3 weeks
Method in brief: as §6

velvetleaf = assay: Foliage treatment test for upland field (Test Example 3): velvetleaf; conditions: foliage treatment at 1.0-2.0 leaf stage of southern crabgrass, examined after 3 weeks
Method in brief: as §6

wheat [13] = assay: Foliage treatment test for upland field (Test Example 3): phytotoxicity to wheat; conditions: foliage treatment at 1.0-2.0 leaf stage of southern crabgrass, examined after 3 weeks
Method in brief: (§7)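 Crops sown in compost-mixed soil pots, kept in a glasshouse at 25° C. average. Effect scored after 3 weeks versus untreated control on a 0–5 scale (0 normal growth, 5 complete kill).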

corn [14] = assay: Foliage treatment test for upland field (Test Example 3): phytotoxicity to corn; conditions: foliage treatment at 1.0-2.0 leaf stage of southern crabgrass, examined after 3 weeks
Method in brief: as §7

soybean [15] = assay: Foliage treatment test for upland field (Test Example 3): phytotoxicity to soybean; conditions: foliage treatment at 1.0-2.0 leaf stage of southern crabgrass, examined after 3 weeks
Method in brief: as §7

For COCC(=Cc1cccc(C(F)(F)F)c1)c1nc2cc(C(F)(F)F)ccc2o1 [Compound 52], the “Herbicidal Effect Barnyard grass” value ([1]; dose 2.5 g ai/a) was 5 (100%), the “Herbicidal Effect Barnyard grass” value ([1]; dose 5 g ai/a) was 5 (100%) and the “Herbicidal Effect Monochoria vaginalis” value ([2]; dose 2.5 g ai/a) was 5 (100%). For the same molecule, the “Herbicidal Effect Monochoria vaginalis” value ([2]; dose 5 g ai/a) was 5 (100%), the “Herbicidal Effect Japanese bulrush” value ([3]; dose 2.5 g ai/a) was 4 (80%-less than 100%) and the “Herbicidal Effect Japanese bulrush” value ([3]; dose 5 g ai/a) was 5 (100%). For the same molecule, the “Herbicidal Effect Flat sedge” value ([4]; dose 2.5 g ai/a) was 3 (60%-less than 80%), the “Herbicidal Effect Flat sedge” value ([4]; dose 5 g ai/a) was 4 (80%-less than 100%) and the “Phytotoxicity Rice plant” value (rice plant; dose 2.5 g ai/a) was 0. The “Phytotoxicity Rice plant” value (rice plant; dose 5 g ai/a) was 1, the “Herbicidal Effect southern crabgrass” value ([5]; dose 2.5 g ai/a) was 5 (100%) and the “Herbicidal Effect southern crabgrass” value ([5]; dose 5 g ai/a) was 5 (100%). The “Herbicidal Effect common lambsquaters” value ([6]; dose 2.5 g ai/a) was 5 (100%), the “Herbicidal Effect common lambsquaters” value ([6]; dose 5 g ai/a) was 5 (100%) and the “Herbicidal Effect slender amaranth” value ([7]; dose 2.5 g ai/a) was 5 (100%). For the same molecule, the “Herbicidal Effect slender amaranth” value ([7]; dose 5 g ai/a) was 5 (100%), the “Herbicidal Effect common purslane” value ([8]; dose 2.5 g ai/a) was 5 (100%) and the “Herbicidal Effect common purslane” value ([8]; dose 5 g ai/a) was 5 (100%). For the same molecule, the “Herbicidal Effect velvetleaf” value ([9]; dose 2.5 g ai/a) was 5 (100%), the “Herbicidal Effect velvetleaf” value ([9]; dose 5 g ai/a) was 5 (100%) and the Phytotoxicity wheat (wheat [10]; dose 2.5 g ai/a) was 1. It also gave a Phytotoxicity wheat (wheat [10]; dose 5 g ai/a) of 1, a Phytotoxicity corn (corn [11]; dose 2.5 g ai/a) of 1 and a Phytotoxicity corn (corn [11]; dose 5 g ai/a) of 1. For the same molecule, the Phytotoxicity soybean (soybean [12]; dose 2.5 g ai/a) was 0, the Phytotoxicity soybean (soybean [12]; dose 5 g ai/a) was 1 and the “Herbicidal Effect southern crabgrass” value (southern crabgrass; dose 2.5 g ai/a) was 5 (100%). The “Herbicidal Effect southern crabgrass” value (southern crabgrass; dose 5 g ai/a) was 5 (100%), the “Herbicidal Effect Common lambsquatters” value (common lambsquaters; dose 2.5 g ai/a) was 5 (100%) and the “Herbicidal Effect Common lambsquatters” value (common lambsquaters; dose 5 g ai/a) was 5 (100%). The “Herbicidal Effect slender amaranth” value (slender amaranth; dose 2.5 g ai/a) was 5 (100%), the “Herbicidal Effect slender amaranth” value (slender amaranth; dose 5 g ai/a) was 5 (100%) and the “Herbicidal Effect common purslane” value (common purslane; dose 2.5 g ai/a) was 5 (100%). The “Herbicidal Effect common purslane” value (common purslane; dose 5 g ai/a) was 5 (100%), the “Herbicidal Effect velvetleaf” value (velvetleaf; dose 2.5 g ai/a) was 5 (100%) and the “Herbicidal Effect velvetleaf” value (velvetleaf; dose 5 g ai/a) was 5 (100%). It also gave a Phytotoxicity wheat (wheat [13]; dose 2.5 g ai/a) of 1, a Phytotoxicity wheat (wheat [13]; dose 5 g ai/a) of 1 and a Phytotoxicity corn (corn [14]; dose 2.5 g ai/a) of 1. The Phytotoxicity corn (corn [14]; dose 5 g ai/a) was 1, the Phytotoxicity soybean (soybean [15]; dose 2.5 g ai/a) was 1 and the Phytotoxicity soybean (soybean [15]; dose 5 g ai/a) was 2.
